`Cc1cc(Cl)cc2nc3c(=O)[nH][nH]c(=O)c3c(O)c12`: the melting point fell in the range of 117 to 119 °C.
The value for `CCOC(=O)C(Cc1ccc(OC)c(OC)c1)NC(=O)c1ccccc1` (configuration not stated) was 82 to 83 °C.
The value for `COc1ccc(-c2ccc(C)nc2-c2ccc(OCCN3CCOCC3)cc2)cc1` was 66 to 67 °C; that for `CC1OP(=O)(O)c2ccccc21` (configuration not stated) was 148 to 149 °C; that for `COc1cc(OC)nc(C(=O)c2cccc(Cl)c2C(=O)N(C)C)n1` was 141 to 142 °C.
`O=C(O)c1cnc(-c2ccc(Cl)cc2)s1`: the melting point was in the range of 233 to 234 °C.
`CC(C)(C)CC(C)(C)NCC(=O)N1CC2C(C1)C2Nc1ncc2cc(-c3ccccc3Cl)c(=O)n(C3CC3)c2n1` (configuration not stated) showed a melting point of 218 to 220 °C.
The molecule `CCOC(=O)c1[nH]cc(Cc2cccc(F)c2C)c1-c1ccccc1` showed a melting point of 120 to 122 °C.
Consider `CN1C(=O)[C@@H](CN2CCCCC2)C[C@H]1c1ccc(Br)s1`, for which the melting point was 69 to 71 °C.
The same measure for `CCOC(=O)c1ccc(COCc2csc3nc(C(=O)NCc4cccc(OC)c4)[nH]c(=O)c23)cc1`: 173 °C.
`Cn1ccc2cc(N3Cc4ccc(Br)cc4C3=O)ccc21` yielded a melting point of 235 to 237 °C.
In the case of `O=C(O)C(Cc1ccccc1)NC(=S)Cc1cccc2ccccc12` (configuration not stated), the melting point fell in the range of 130 to 132 °C.
Molecule `O=[N+]([O-])c1ccc(C=CS(=O)(=O)N=C(Cl)c2ccccc2)cc1` returned a melting point of 168 to 175 °C.
The value for `CS(=O)(=O)c1ccc(-n2cnc3ccc(-c4nnc(CC(F)(F)F)o4)cc32)cc1` was 229 to 232 °C.
`COc1ccnc(C(=O)c2[nH]c3cc(Cl)ccc3c2NC(=O)N(C)OC)c1` had a melting point of 184 to 185 °C.
Molecule `O=C(N=c1sc2cc(C(F)(F)F)ccc2n1CCO)C(F)(F)F` yielded a melting point of 198 °C.
`O=C(O)CCC(=O)c1cc2c(s1)CCc1ccccc1C2` displayed a melting point of 202 to 203 °C.
`CCOC(=O)c1ccc(OCCCCCCCCCCCCCOc2ccc(Cl)cc2)cc1` gave a melting point of 75 to 77 °C.
As for `CN(C)C1CCN(c2nccc(Oc3ccc(NC(=O)c4cc(F)cc(N5CCCCC5)c4)c4ccccc34)n2)C1` (configuration not stated), the melting point fell in the range of 93 to 94 °C.
`O=c1[nH]c2ccsc2c(=O)n1CCN1CCC(=C(c2ccc(F)cc2)c2ccc(F)cc2)CC1` came in with a melting point of 207 to 208 °C.
As for `CCCCN(Cc1ccc(Cl)cc1)c1cncnc1`, the melting point is 67 to 68 °C.
Regarding `COc1ccc(C(O)(CC(=O)N2CCOCC2)c2ccc(Cl)cc2)cc1OC` (configuration not stated), the melting point was determined as 150 °C.
As to `CCCCCCCc1ccc(-c2nc(C)c(C(C)=NNC(=N)N)s2)cc1`, the melting point was 233 to 235 °C.
The same measure for `Cn1c(C(F)(F)F)cc(=O)n(-c2cc(OS(=O)(=O)c3ccc(Cl)cc3)c(Cl)cc2F)c1=O`: 152 to 154 °C.
As to `OCC1OC(c2ccc(F)c(Cc3ccc(-c4nccs4)s3)c2)C(O)C(O)C1O` (configuration not stated), the melting point came out at 162 °C.
`COc1ccc2nc(-c3cccc(C)c3)cc(OCc3ccccc3)c2c1` had a melting point of 133 to 134 °C.
Take `CCCc1c(OCCCOc2ccc(C(=O)CCC(=O)O)c(Cl)c2)ccc(C(C)=O)c1O`: the melting point is 143 to 144 °C.
`C=C(c1ccsc1C=O)c1cc(C(C)(C)C)cc2c1CCC2(C)C` came in with a melting point of 99 to 100 °C.
In turn, `CCOC(=O)CN(c1cccc2cc(-c3nccs3)[nH]c12)S(=O)(=O)c1cccs1` yielded a melting point of 135 to 137 °C.
The same measure for `CC1(C)Oc2ccc(C#N)cc2[C@@H](Br)[C@@H]1O` (relative stereo): 111 to 112 °C.
For the molecule `O=C(O)c1cc2cc(Cl)ccc2nc1NC(Cc1ccc(C#Cc2ccccc2)cc1)C(=O)O` (configuration not stated), the melting point fell in the range of 164 to 173 °C.
In the case of `O=C(NCCCCCCCCF)N1CCC(Nc2ccc(CCNC[C@H](O)COc3ccc(O)cc3)cc2)CC1`, the melting point was in the range of 78 to 80 °C.
In turn, `CCN(CC)S(=O)(=O)c1cc(O)c(N=Nc2c(C)nn(CC)c2O)c2ccccc12` registered a melting point of 174 to 175 °C.
For the molecule `Cc1ccccc1-n1ccnc1SCCCO`, the melting point lay in the range of 47 to 48 °C.
The value for `CCn1c(=O)c(-c2ccc3ccccc3c2)cc2cnc(Nc3ccccc3)nc21` was 254 to 256 °C; that for `CC1CN(c2c(F)cc3c(=O)c(C(=O)O)cn(C4CC4)c3c2C#N)CCN1` (configuration not stated) was over 300 °C.
Consider `CCCCCOc1ccc(CCOc2ccc(/C=C(\OCC)C(=O)O)cc2OCCCC)cc1Cl`, for which the melting point is 95 °C.
In turn, `CCOc1cc(OCC)cc(-c2c(Cl)ncn2-c2ccc(S(C)(=O)=O)cc2)c1` came in with a melting point of 227 to 231 °C.
In turn, `Brc1ccc(OC2CCOCC2)cc1` displayed a melting point of 53 to 55 °C.
`CC(=O)Nc1ccc(Oc2ncc(Cl)cn2)cc1` returned a melting point of 202 °C.
`COCC1=NC(NC(=O)Nc2cccc(C)c2)C(=O)N(CC(=O)N2CC3CCC(CC3)C2)c2c(C)cccc21` (configuration not stated) registered a melting point of 178 to 182 °C.
The value for `CCCCCC1OCc2cc(C(N)=O)ccc2O1` (configuration not stated) was 162 to 163 °C.
With `CN1CCN(c2ccc(-c3[nH]nc4c3C(=O)c3c(NC(=O)NNC(=O)c5cccnc5)cccc3-4)cc2)CC1`, the melting point came out at 238 °C.
Molecule `CC(=O)c1cccc(S(=O)(=O)C[N+](=O)[O-])c1` came in with a melting point of 99 to 100 °C.
`CC(=O)N1c2ccc(-c3ccc(-c4nnn[nH]4)cc3)cc2C(Nc2ccc(Cl)cc2)CC1C` (configuration not stated) returned a melting point of 250 °C.
With `COC(=O)CCCCCNC(=O)C[C@H]1O[C@H](c2cccc(OC)c2OC)c2cc(Cl)ccc2N(CC(C)(C)CO)C1=O`, the melting point fell in the range of 131 to 132 °C.
For the molecule `CC1Cc2c(c(Br)cc(F)c2-n2c(=O)cc(C(F)(F)F)n(C)c2=O)O1` (configuration not stated), the melting point is 66 to 75.5 °C.
`CCOC(=O)c1cnc2n(c1=O)C(C)CCC2=NN` (configuration not stated): the melting point fell in the range of 199 to 200 °C.
In turn, `CC(=O)Nc1c(F)cc(F)cc1SCC#N` showed a melting point of 148 to 149 °C.
`CC1Nc2ccc(-c3csc(C#N)c3)cc2C(C)(C)O1` (configuration not stated) gave a melting point of 175 to 176 °C.
`CC(=O)N(Cc1ccccc1)CC(CCN1CCC(O)(c2ccccc2)CC1)c1ccc(Cl)c(Cl)c1` (configuration not stated) returned a melting point of 57 to 62 °C.
The value for `O=C(Nc1ccccc1O)C1CCc2nc[nH]c2C1` (configuration not stated) was 203 to 205 °C; that for `Cc1c(NC(=O)CC(C)(C)C)cc2c(c1C)OC(C)(C)C2(O)Cc1ccccc1` (configuration not stated) was 212 to 213 °C; that for `CCOc1sc(C)nc1S(=O)(=O)NC(=O)Nc1nc(OC)cc(OC)n1` was 140 to 143 °C.
Take `COC(=O)C1CCC2C3CC(=O)C4(O)CC(O)CCC4(C)C3CCC12C` (configuration not stated): the melting point was 258 to 260 °C.
`COc1cc(C(=O)N2Cc3ccc(C(=O)C(Cl)(Cl)Cl)n3Cc3ccccc32)ccc1-c1ccccc1C` returned a melting point of 221 to 222 °C.
Consider `Cc1ccc(Cl)c(C)c1NC(=O)N=C1NC(=O)CN1C`, for which the melting point is 140 to 142 °C.
The molecule `COc1ccc(S(C)(=O)=O)cc1C(=O)NCC1CCCN1C12CCC(CC1)C2` (configuration not stated) came in with a melting point of 125 °C.
Molecule `O=C(CCc1c(C(=O)OCCN2CCOCC2)[nH]c2cc(Cl)cc(Cl)c12)OCCN1CCOCC1` had a melting point of 110 to 112 °C.
The value for `CSc1cnc2c(-c3ccccc3)csc2c1O` was 273 to 275 °C; that for `CCc1nc2c(N)nc3cc(/C=C/C(=O)OC)ccc3c2n1CC(C)(C)O` was 238 to 240 °C.
Molecule `CC(O)CC(=O)NCCN` (configuration not stated) yielded a melting point of 71 to 73 °C.
For `CC(C)Sc1c(-c2ccc(S(C)(=O)=O)cc2)cnn(CC(F)(F)F)c1=O`, the melting point was in the range of 165 to 167 °C.
The molecule `Cc1cc(C)cc(Nc2nccc(-n3ccnc3-c3ccccc3)n2)c1` showed a melting point of 183 °C.
`O=[N+]([O-])c1ccc(NC(CO)(CO)CO)cc1` had a melting point of 165 °C.
In turn, `O=C(O)CCCCc1c([N+](=O)[O-])cc(O)c(O)c1[N+](=O)[O-]` yielded a melting point of 135 to 139 °C.
For the molecule `O=C1c2ccccc2C(=O)N1CCCCOc1ccc(-c2ccccc2)cc1`, the melting point lay in the range of 110 to 111 °C.
Turning to `CC(=O)OCCN1CCSc2ccc(Nc3ncc(Cl)c(N[C@@H]4CCCC[C@H]4NS(C)(=O)=O)n3)cc2C1`, the melting point fell in the range of 85 to 90 °C.
As to `Nc1cc(=O)n(Cc2cc(Cl)cc(Cl)c2)[nH]1`, the melting point lay in the range of 175 to 176 °C.
`COc1ccc2c(c1)c(-c1cc3c(C(=O)O)ccnc3[nH]1)cn2C` showed a melting point of over 300 °C.
As to `COC(=O)c1ccccc1NS(=O)(=O)NC(C)C`, the melting point fell in the range of 106 to 108 °C.
The molecule `Cc1nc(-c2cccc(C(=O)N[C@H]3CC[C@H](CCN4CCN(c5nccc6c5OCC6)CC4)CC3)c2)no1` displayed a melting point of 228 °C.
`O=C(c1sc2c(ccc(=O)n2-c2ccccc2)c1Br)N1CC(O)C1` displayed a melting point of 199 °C.
For `CCOC(=O)C1CCc2c(n(C(C)=O)c3ccc(Cl)cc23)C1` (configuration not stated), the melting point was 95 to 96 °C.
The same measure for `O=C(NC1=NCCC1)Nc1ccc(Cl)cc1`: 147 to 150 °C; for `CN1CCN(CC(=O)N2c3ccccc3N(C)C(=O)c3cncnc32)CC1`: 183 to 185 °C; for `CC(=O)CC(=O)C=Cc1cc(O)ccc1Br`: 185 to 188 °C.
`CCCc1c(C2=NN=C(C)Cc3cc4[nH]c(=O)oc4cc32)sc2ccccc12` yielded a melting point of 307 to 308 °C.
The molecule `CCOC(Nc1ccccc1)(OCC)C1(F)C=CN=C(C(=O)c2ccc(Cl)cc2)C1` (configuration not stated) displayed a melting point of 96 to 97 °C.
Consider `CCNC(=O)Nc1ncc(-c2ccncc2)cn1`, for which the melting point is 241 to 246 °C.
Turning to `O=S1(=O)c2cccc3cccc(c23)N1CCCN1CCN(c2ccccc2)CC1`, the melting point came out at 126 °C.
On to `CCCCCCCCCCCCCCNC1=NS(=O)(=O)c2sc(Cl)cc2N1`, for which the melting point was in the range of 157 to 158 °C.
The molecule `CN1CCCCC1CCc1ccccc1NS(C)(=O)=O` (configuration not stated) displayed a melting point of 91.5 to 93.5 °C.
In turn, `C=CCCCCCCCCNC(=O)N[C@H]1CCCNC(=O)C1` returned a melting point of 98 to 99 °C.
Turning to `COc1ccc(CNc2nc(-n3ccnc3)nc3sc(C)cc23)cc1OC`, the melting point worked out at 207 °C.
On to `CCOC(=O)Cn1c(=O)c2ccccc2n(Cc2ccc(Cl)cc2)c1=O`, for which the melting point was in the range of 138 to 139 °C.
The molecule `O=C(SC1CCN(C(C(=O)C2CC2)c2ccccc2F)CC1)c1ccccc1` (configuration not stated) showed a melting point of 55 to 59 °C.

These data come from a melting point compilation (Tetko et al.; mined from patent text by program, amines drawn as free bases though some values may be those of a salt).
